We go through four molecules from patent publication US8748097B1, “Identification of agents for treating calcium disorders and uses thereof” (President and Fellows of Harvard College, priority 2011, dated 2014).

Read-outs that look alike come from different tables or passages of the source.

In one assay the test system is NFATc1 mRNA. The assay can be described thus: A23187-induced NFATc1 expression. Type of assay: cell-based. The note with it: C2orf28 deficient cells vs control; 1 μM A23187, 12 hours. As for the experimental part: FIG. 13. A23187-induced NFATc1 Expression. Control and C2orf28 deficient cells were treated for 12 hours with 1 μM A23187. After 12 hours, relative levels of NFATc1 mRNA expression were measured.
Total RNA was isolated and reverse-transcription was performed from cells grown in the indicated conditions. The resulting cDNA was diluted in DNase-free water (1:20) followed by quantification by real-time PCR. Data is expressed as the ratio between the expression of the target gene to the housekeeping gene, 18s. Each treated sample was normalized to the level of the vehicle controls of the same cell type. The following primers were used for quantitative real-time PCR: […]

For another assay, the system named is HEK-293T. Particulars: HEK-293T with C2orf28 depletion using RNAi; data not shown.
Assay [1] relates to alkaline phosphatase (ALPL). Particulars: TBONE deficient cells vs GFP control; 10 nM Alendronate. The method, then:
(§1) Briefly, GFP control and TBONE knockdown cells were generated and subjected to differentiation as described above. Following the two week incubation, cells were treated with 10 nM Alendronate (exemplary NBP) or vehicle and analyzed by real-time RT-PCR using TBONE, OC and BSP gene specific oligonucleotide primers (FIG. 15). Alkaline phosphatase activity was measured using a colorimetric based assay designed to indicate ALPL activity by changing color following the dephosphorylation of p-nitrophenyl phosphate (pNPP) (FIG. 16).

A further assay concerns MC3T3-e1 cells. As for the experimental part:
FIG. 15. Basal and NBP-potentiated osteoblastic gene expression. shNA-mediated TBONE knockdown (TBONE—1 and TBONE—2) and transfection control (GFP) cells were treated with 10 nM Alendronte or vehicle and analyzed using real-time RT-PCR for mRNA expression of (A) TBONE, (B) osteocalcin (OC), and (C) bone sialoprotein (BSP).
Since NBPs and calcium potentially play an important role in regulating osteoblast function, studies were performed to evaluate the role of TBONE in osteoblast differentiation. For the experiment, wild-type and GFP positive MC3T3-e1 cells were transiently transfected with small-hairpin RNA (shRNA). GFP positive cells were treated with a shRNA designed to target and disrupt GFP expression (transfection control), while wild-type cells were treated with one of two shRNA constructs (TBONE—1 and TBONE—2) designed to target and disrupt expression of Apr3. The cells were then subjected to conditions for promoting osteoblast differentiation, 50 μg/ml ascorbic acid and 10 mM B-glycerophosphate for 2 weeks, and analyzed for extracellular calcium deposition using Alizarin Red or phosphate deposition using the Von Kossa method.
as §1

Assay [2] has as its target HA tagged C2orf28 variant 2 (Homo sapiens, UniProt Q6UW56). Particulars: MC3T3-E1 pre-osteoblasts expressing HA tagged C2orf28 variant 2; 7504 fluorophore conjugated Alendronate.
Protocol: Sub-cellular Localization. […] Cells were processed in an immunofluorescence assay.
Following incubation, the cells were washed, and processed in an immunofluorescence assay to detect HA and Alendronate, along with DAPI to visualize DNA content.
25,000-100,000 cells were plated on fibronectin-coated glass coverslips, fixed with 4% paraformaldehyde, and permeabilized with 0.2% Triton X-100. Permeabilized cells were blocked in 0.25% BSA PBS, incubated with primary antibody in blocking buffer overnight at 4° C. and subsequently incubated with secondary antibodies (diluted in blocking buffer 1:1000) for one hour at room temperature. 2-4×PBS washes were used in between all preceding steps. The coverslips were mounted on glass slides using Vectashield containing DAPI (Vector Laboratories) and imaged with 63× objective using epifluorescence microscopy.
Assay [3] concerns cells containing or lacking C2orf28. Particulars: C2orf28 deficient vs C2orf28-complemented cells; 75 μM fluorophore conjugated H^3-labeled Alendronate plus 60 μM cold, 60 hours.
Protocol: The volume was made up to 1 ml with distilled water and the solution incubated for 2 hours at room temperature with mixing.
The test system of a further assay is KBM7 cells. The method, then:
(§2) All measurements were performed in quadruplicate.
as §2

In assay [4] the test system is RANKL mRNA in ST-2 osteoblast cells. As for the experimental part:
(§3) GFP positive cells were treated with a shRNA designed to target and disrupt GFP expression (transfection control), while wild-type cells were treated with one of two shRNA constructs (TBONE—1 and TBONE—2) designed to target and disrupt expression of Apr3.

For assay [5], the system named is RAW 264.7 macrophages. The method, then:
as §3

The test system of a further assay is HDJ-2 prenylation. Particulars: indicated dose of Alendronate, 72 hours. The method, then:
(§4) FIG. 8. Effect of Nitrogenous Bisphosphonates on Prenylation. Cells containing (WT) or lacking C2orf28 (C2orf28_GT2) were treated with Alendronate at the indicated dose ((−) indicates no Alendronate). After 72 hours the cells were analyzed by immunoblotting for the indicated proteins.
(§5) Therefore, to determine whether C2orf28 is involved with NBPs mediated protein prenylation, the inventors' monitored the prenylation of several known prenylated proteins including the heat shock protein DnaJ (Hsp40) homolog, HDJ-2, and the Ras family GTPase, Rapla. Cells containing or lacking C2orf28 were treated with the indicated dose of Alendronate for 72 hours then lysed and analyzed by immunoblotting for the indicated proteins.
(§6) Cells were pelleted by centrifugation at 9,000 rpm for 30 seconds, rinsed once with ice-cold PBS and lysed with Triton-X 100 containing lysis buffer (40 mM HEPES [pH 7.4], 2 mM EDTA, 150 mM NaCl, 50 mM NaF, 1% Triton-X 100, and one tablet of EDTA-free protease inhibitors [Roche] per 25 ml). The soluble fractions of cell lysates were isolated by centrifugation at 13,000 rpm for 10 minutes in a microcentrifuge. Lysate protein concentrations were normalized by Bradford assay (Bio-Rad). Proteins were then denatured by the addition of sample buffer and by boiling for 5 minutes, resolved using 4%-20% SDS-PAGE (Invitrogen), and analyzed by immunoblotting.

For another assay, the system named is Rapla prenylation. Particulars: indicated dose of Alendronate, 72 hours. The method, then: as §4, §5, §6
In assay [6] the test system is RAW 264.7 macrophages. The assay can be described thus: RANKL-mediated induction of TRAP activity in RAW 264.7 macrophages. Type of assay: cell-based. The note with it: TBONE knockdown RAW 264.7 macrophages; 50 ng/ml RANKL, 5 days. The source says:
In order to determine if TBONE plays a role in directly regulating osteoclastogensis, TBONE was knockdown in macrophages to evaluate its potential effect on RANKL stimulated differentiation; by monitoring lineage specific surface marker expression of the calcitonin receptor (CALCR), a well-established indicator of osteoclast activity (J. Lam et al., (2000) J Clin Invest: 106, 1481; D. L. Lacey et al., (1998), Cell: 93, 165; and C. Minkin, (1982), Calcif Tissue Int: 34, 285; all of which are hereby incorporated by reference). Briefly, wild-type and GFP positive RAW 264.7 macrophages cells were transiently transfected with shRNA to knockdown GFP and Arp3 as described above. The cells were treated with 50 ng/ml RANKL for 5 days. […] Second, cells were analyzed for tartrate-resistant acid phosphatase (TRAP) activity.

The mark [7] stands for this setting: TBONE deficient cells vs GFP control, 10 nM Alendronate.
Where [8] appears, read: C2orf28 deficient cells (C2orf28_GT2).

Chain of HA tagged C2orf28 variant 2 (Q6UW56 1-284 isoform Q6UW56-3): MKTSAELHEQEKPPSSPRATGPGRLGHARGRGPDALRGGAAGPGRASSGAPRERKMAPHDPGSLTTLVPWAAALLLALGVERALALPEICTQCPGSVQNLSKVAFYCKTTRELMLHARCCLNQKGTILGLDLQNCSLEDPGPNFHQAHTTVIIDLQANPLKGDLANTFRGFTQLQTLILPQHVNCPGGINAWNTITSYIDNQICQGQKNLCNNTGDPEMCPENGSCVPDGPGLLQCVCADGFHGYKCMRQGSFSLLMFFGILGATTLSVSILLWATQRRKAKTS

With `CNc1ccc2oc(C[C@H]3O[C@@]4(CC[C@H]3C)O[C@H]([C@H](C)C(=O)c3ccc[nH]3)[C@H](C)C[C@H]4C)nc2c1C(=O)O` [A23187], the “A23187-induced NFATc1 gene expression” value in the assay with NFATc1 mRNA is recorded as “defective”.
As for `NCCCC(O)(P(=O)(O)O)P(=O)(O)O` [Alendronate], the Anti-proliferative effects entry with HEK-293T is on record as “strong resistance”. For the same molecule, in assay [1], the “NBP-stimulated ALPL (alkaline phosphatase activity)” value is “fail to demonstrate an increase in basal or NBP-stimulated gene expression”. Besides, the “Relative TBONE mRNA expression” value in the assay with MC3T3-e1 cells (GFP control cells, 10 nM Alendronate vs vehicle) was “increase in relative TBONE expression”. In addition, the “NBP-stimulated gene expression of bone sialoprotein (BSP)” value in the assay on MC3T3-e1 cells (setting [7]) was “fail to demonstrate an increase in basal or NBP-stimulated gene expression”. The “NBP-stimulated gene expression of osteocalcin (OC)” value in the assay on MC3T3-e1 cells (setting [7]) was “fail to demonstrate an increase in basal or NBP-stimulated gene expression”. For the same molecule, the “NBP-stimulated induction of TBONE mRNA” value in the assay with MC3T3-e1 cells (TBONE knockdown cells (TBONE—1 and TBONE—2), 10 nM Alendronate) is “fail to demonstrate a NBP-stimulated induction of TBONE”. Besides, in [2], the “Colocalization of Alendronate and C2orf28 co-staining” value is “high degree of colocalization”. Further, the “Cellular Alendronate accumulation” value in assay [3] is on record as “altered cellular Alendronate accumulation”. Further, the “Cell viability (cellular ATP, ratio to untreated cells)” value was “resistant” in the assay with KBM7 cells (C2orf28_GT2 cells expressing C2orf28 variant 2 lacking the transmembrane domain, 0, 60 or 9004, 72 hours); “sensitive” in the assay with KBM7 cells (C2orf28_GT2 cells expressing full-length C2orf28 variant 2, 0, 60 or 9004, 72 hours); “as sensitive to Alendronate as wild-type KBM7 cells” in the assay with KBM7 cells (C2orf28 mutant cells with exogenous C2orf28 variant 2 or variant 3, 60 μM, 72 hours). For the same molecule, the “RANKL mRNA induction by Vitamin D” value in assay [4] (wild-type ST-2 cells, 100 nM Vitamin D plus increasing concentration of Alendronate, vs control) is given as “impaired RANKL mRNA induction by Vitamin D, in a dose dependent fashion”. For the same molecule, the “Vitamin D stimulated osteoclastogenesis (TRAP activity)” value with RAW 264.7 macrophages [5] (ST-2 cells treated with 100 nM Vitamin D and Alendronate, co-cultured with RAW 264.7 macrophages) was “reduced TRAP activity”. For the same molecule, the HDJ-2 prenylation result is “no effect” in the assay on HDJ-2 prenylation (setting [8]); “impaired both HDJ-2 and Rapla prenylation in a dose dependent manner” with HDJ-2 prenylation (cells containing C2orf28 (WT)). Further, the Rapla prenylation entry was “no effect” in the assay with Rapla prenylation (setting [8]); “impaired both HDJ-2 and Rapla prenylation in a dose dependent manner” in the assay on Rapla prenylation (cells containing C2orf28 (WT)).
As for Vitamin D, the “RANKL mRNA induction by Vitamin D” value in [4] (TBONE knockdown ST-2 cells (TBONE—1 and TBONE—2) vs GFP control, 100 nM Vitamin D) is reported as “impaired RANKL mRNA induction”. Besides, the “Vitamin D stimulated osteoclastogenesis (TRAP activity)” value with RAW 264.7 macrophages [5] (TBONE knockdown ST-2 cells co-cultured with RAW 264.7 macrophages, 100 nM Vitamin D) was “largely blocked”.

B1: RANKL: regulatory molecule stimulating osteoclast differentiation and function (protein, UniProt O14788 140-317, looked up)
Tumor necrosis factor ligand …: IRAEKAMVDGSWLDLAKRSKLEAQPFAHLTINATDIPSGSHKVSLSSWYHDRGWAKISNMTFSNGKLIVNQDGFYYLYANICFRHHETSGDLATEYLQLMVYVTKTSIKIPSSHTLMKGGSTKYWSGNSEFHFYSINVGGFFKLRSGEEISIEVSNPSLLDPDQDATYFGAFKVRDID
Regarding B1, the “RANKL-mediated TRAP activity” value in the assay with RAW 264.7 macrophages [6] is “strongly impairs”.
